# Values of other authors, collected in patent US6441198B1, “Podophyllotoxin dimer as DNA topoisomerase II inhibitors, and a process for the preparation therefore” (Council of Scientific and Industrial Research, priority 2000, dated 2002).
# What was measured:
# [1] = test system: cellular protein-DNA complex formation; conditions: relative to etoposide
# [2] = test system: human DNA topoisomerase II; conditions: relative to etoposide
compound,measurement,setting,value
"COc1cc(C2c3cc4c(cc3C(Nc3ccc(F)cc3)C3COC(=O)C23)OCO4)cc(OC)c1O (stereo not drawn) [NPF, 4′-0-demethyl-4β-(4″-fluoroanilino)-4-desoxypodophyllotoxin]",activity in in vitro human tumour cell lines assay,human tumour cell lines,very active
same,activity in cellular protein-DNA complex formation compared to etoposide,[1],113 times
same,potency in inhibiting human DNA topoisomerase II compared to etoposide,[2],10 fold
